Laboratory results: patent publication US11654101B2, “Use of magnolia, juniper or violet absolute in cosmetics for depigmenting the skin” (ROBERTET S.A., priority 2017, dated 2023)

Tested on: murine melanocytes B16-F10
Experiment: Tests on B16 melanocytes, dosing of the intracellular melanin
Format: cell-based
Details: B16-F10 cells incubated 24 h at 37° C.; intracellular melanin content, absorbance 405 nm
Protocol: […] model tests on melanin-producing cells, the murine melanocytes B16-F10, have been necessary. The decrease in the cellular tyrosinase activity, associated with a reduction of the intracellular melanin content, while preserving the survival of the cells by non-cytotoxic concentrations, have then been investigated. For this purpose, the B16-F10 cells have been seeded into 24-well plates, and incubated for 24 h at 37° C. with several concentrations of different selected raw materials. […] Afterwards, the cells are lysed, and centrifuged. In turn, the cell pellet is dissolved by a NaOH 1N solution and incubated for 1 hour at 70° C. before being deposited in a 96-well plate put in the spectrophotometer at 405 nm. Afterwards, a comparison with the absorbance of a standard melanin calibrated range allows determining the intracellular melanin content of each condition and checking on the inhibitor effect of the melanogenesis by the different raw materials.

Effective IC50: 214 ppm
SMILES: O=c1cc(CO)occ1O [Kojic acid, kojic acid]
